This assay concerns the target human PD-L1 (Homo sapiens (Human), UniProt Q9NZQ7). Description: Enzyme-Linked Immunosorbent Assay (ELISA), PD-1/PD-L1 binding. As for the experimental part:
96 Well plates were coated with […] of human PD-L1 (obtained from R&D) in PBS overnight at 4° C. The wells were then blocked with 2% BSA in PBS (W/V) with 0.05% TWEEN-20 for 1 hour at 37° C. The plates were washed 3 times with PBS/0.05% TWEEN-20 and the compounds were serial diluted (1:5) in dilution medium and added to the ELISA plates. Human PD-1 […] 0.31 μg/mL (ACRO Biosystems) were added and incubated for 1 hour at 37° C. then washed 3 times with PBS/0.05% TWEEN-20. A second block was performed with 2% BSA in PBS (W/V)/0.05% TWEEN-20 for 10 min at 37° C. and the plates were washed 3 times with PBS/0.05% TWEEN-20. Streptavidin-HRP was added for 1 hour at 37° C. then the plates were washed 3 times with PBS/0.05% TWEEN-20. TMB substrate was added and reacted for 20 min at 37° C. A stop solution (2 N aqueous H2SO4) was added. The absorbance was read at 450 nm using a micro-plate spectrophotometer.
Using the methods described in the Examples above, the compounds in Table 2 were prepared & tested for biological activity using the ELISA method described above.
For orientation: In an ELISA, binding on a coated surface is turned into a signal by an enzyme label.

Where [1] appears, read: human PD-1/PD-L1 ELISA, plates coated with human PD-L1.
Where [2] appears, read: PD-1/PD-L1 ELISA, human PD-L1 coated plates, Table 1.
[3] abbreviates: plate-coated human PD-L1, biotinylated Human PD-1, absorbance at 450 nm.

Sequence of human PD-L1 (Q9NZQ7 19-239): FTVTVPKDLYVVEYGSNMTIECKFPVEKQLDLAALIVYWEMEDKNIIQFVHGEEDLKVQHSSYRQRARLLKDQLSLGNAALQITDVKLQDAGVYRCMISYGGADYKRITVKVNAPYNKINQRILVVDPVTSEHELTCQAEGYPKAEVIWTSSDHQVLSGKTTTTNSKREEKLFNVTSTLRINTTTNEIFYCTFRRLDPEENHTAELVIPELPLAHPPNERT

The IC50 is the concentration that inhibits the measured activity by half. In the case of `COc1cc(-c2cccc(-c3cccc(NC(=O)c4nn(C)c(=O)n(C)c4=O)c3C)c2C)cc(F)c1CNCc1c[nH]c(=O)[nH]c1=O` [Example 1.054], the IC50 under setting [1] was < 10 nM.

On to `COc1cc(-c2cccc(-c3cccc(Nc4nccc5nccnc45)c3C)c2C)cc(F)c1CNC1CCOC1` (stereo not shown) [Example 1.213], for which the IC50 under setting [2] was < 10 nM.

With `COc1cc(-c2cccc(-c3cccc(NC(=O)c4cc(C(=O)O)[nH]n4)c3C)c2C)cc(F)c1CN` [Example 1.304], under setting [2], the IC50 was 1000 to 10000 nM.

With `COc1cc(-c2cccc(-c3cccc(NC(=O)c4cn(C)c(=O)n(C)c4=O)c3C)c2F)cc(F)c1CNC[C@@H]1CCC(=O)N1` [Example 1.021], under setting [1], the IC50 was < 10 nM.

Under setting [2], `COc1cc(-c2cccc(-c3cccc(NC(=O)c4cccc(N)n4)c3C)c2C)cc(F)c1CN` [Example 1.386] had a 50% inhibitory concentration (IC50) of 10 to 1000 nM.

For the molecule `CCOc1cc(-c2cccc(-c3cccc(NC(=O)c4cn(C)c(=O)n(C)c4=O)c3C)c2Cl)cc(F)c1CN[C@H]1CCC(=O)NC1` [Example 2.038], the IC50 under setting [3] lay within 10 to 1000 nM.

Turning to `COc1cc(-c2cccc(-c3cccc(Nc4nccc5nccnc45)c3C)c2Cl)cc(F)c1CN[C@H]1CCOC[C@H]1O` [Example 2.114], under setting [3], the IC50 was < 10 nM.

For the molecule `COc1cc(-c2cccc(-c3cccc(NC(=O)c4cn(C)c(=O)n(C)c4=O)c3Cl)c2C)cc(F)c1CN[C@@H]1CNC(=O)C1` [Example 1.047], under setting [1], the IC50 is < 10 nM.

Consider `COc1cc(-c2cccc(-c3cccc(Nc4nccc5nccnc45)c3C)c2F)cc(F)c1CNCC(C)(C)C(N)=O` [Example 1.029], for which, under setting [1], the IC50 lay in the range of 10 to 1000 nM.

As for `COc1cc(-c2cccc(-c3cccc(Nc4cncc5nccnc45)c3C)c2C)cc(F)c1CN[C@@H]1CNC(=O)C1` [Example 1.043], under setting [1], the IC50 was < 10 nM.

For the molecule `COc1cc(-c2cccc(-c3cccc(NC(=O)c4nn(C)c(=O)n(C)c4=O)c3C)c2C)cc(F)c1CNC1CCNC(=O)C1` (stereo not shown) [Example 1.055], the IC50 under setting [1] was < 10 nM.

`COc1cc(-c2cccc(-c3cccc(NC(=O)c4cncn(C)c4=O)c3C)c2C)cc(F)c1CN[C@@H]1CCC(=O)NC1` [Example 1.102]: the IC50 under setting [1] is < 10 nM.

As to `COc1cc(-c2cccc(-c3cccc(NC(=O)c4ccccn4)c3C)c2C)cc(F)c1CN1CC(C(=O)O)C1` [Example 1.381], under setting [2], the IC50 was < 10 nM.

For the molecule `COc1cc(-c2cccc(-c3cccc(NC(=O)c4cccn(C)c4=O)c3C)c2C)cc(F)c1CN` [Example 1.311], under setting [2], the IC50 is < 10 nM.

For `COc1cc(-c2cccc(-c3cccc(Nc4nccc5c4C(=O)N(C)CC5)c3C)c2C)cc(F)c1CN(C)C[C@@H]1CCC(=O)N1` [Example 1.192], the IC50 under setting [1] was in the range of 10 to 1000 nM.

Regarding `COc1cc(-c2cccc(-c3cccc(NC(=O)c4ccc(CN[C@@](C)(CO)C(=O)O)cn4)c3C)c2C)cc(F)c1CN[C@@](C)(CO)C(=O)O` [Example 1.402], under setting [1], the concentration for half-maximal inhibition (IC50) was < 10 nM.

For the molecule `COc1cc(-c2cccc(-c3cccc(Nc4ccnc5nccnc45)c3C)c2C)cc(F)c1CN1CC(C(=O)O)C1` [Example 1.245], under setting [2], the IC50 was < 10 nM.

As for `CCOc1cc(-c2cccc(-c3cccc(NC(=O)c4cn(C)c(=O)n(C)c4=O)c3C)c2Cl)cc(F)c1CN[C@@H]1CCOC[C@@H]1O` [Example 2.039], the IC50 under setting [3] was < 10 nM.

Turning to `COc1cc(-c2cccc(-c3cccc(NC(=O)c4cn(C)c(=O)n(C)c4=O)c3C)c2C)cc(F)c1CNCCC1CCC(=O)N1` (stereo not shown) [Example 1.115], under setting [1], the IC50 was < 10 nM.

As for `COc1cc(-c2cccc(-c3cccc(Nc4nccc5nccnc45)c3C)c2C)cc(F)c1CN[C@@H]1CNC(=O)C1` [Example 1.206], the IC50 under setting [2] is < 10 nM.

Take `COc1cc(-c2cccc(-c3cccc(NC(=O)c4c[nH]c(=O)n(C)c4=O)c3C)c2Cl)cc(F)c1CN[C@H]1CCC(=O)NC1` [Example 2.032]: under setting [3], the IC50 is < 10 nM.

As to `COc1cc(-c2cccc(-c3cccc(NC(=O)c4cn(C)c(=O)n(C)c4=O)c3Cl)c2Cl)cc(F)c1CN[C@H]1CCC(=O)NC1` [Example 1.007], the IC50 under setting [1] was < 10 nM.

Turning to `COc1cc(-c2cccc(-c3cccc(NC(=O)c4c[nH]c(=O)n(C)c4=O)c3C)c2C)cc(F)c1CNCC1CCCNC1=O` (stereo not shown) [Example 1.100], the IC50 under setting [1] is < 10 nM.

With `COc1cc(-c2cccc(-c3cccc(NC(=O)c4cccn(CCO)c4=O)c3C)c2C)cc(F)c1CN1CC(C(=O)O)C1` [Example 1.277], the IC50 under setting [2] was < 10 nM.

Regarding `COc1cc(-c2cccc(-c3cccc(NC(=O)c4ncc(C)cn4)c3C)c2C)cc(F)c1CN1CC(C(=O)O)C1` [Example 1.364], the IC50 under setting [2] lay within 10 to 1000 nM.

As for `COc1cc(-c2cccc(-c3cccc(NC(=O)c4cn(C)c(=O)n(C)c4=O)c3Cl)c2Cl)cc(F)c1CN[C@H]1CCOC[C@@H]1O` [Example 2.082], under setting [3], the IC50 was < 10 nM.

Turning to `COc1cc(-c2cccc(-c3cccc(NC(=O)c4cn(C)c(=O)n(C)c4=O)c3C)c2Cl)cc(F)c1CNC1CCOCC1` [Example 2.083], the IC50 under setting [3] is < 10 nM.

Take `COc1cc(-c2cccc(-c3cccc(NC(=O)c4cn(C)c(=O)n(C)c4=O)c3C)c2Cl)cc(F)c1CN1CC2(CCNC2=O)C1` [Example 2.012]: the concentration for half-maximal inhibition (IC50) under setting [3] is < 10 nM.

As to `COc1cc(-c2cccc(-c3cccc(NC(=O)c4cccn(CC(=O)O)c4=O)c3C)c2C)cc(F)c1CN` [Example 1.291], under setting [2], the IC50 fell in the range of 1000 to 10000 nM.

`COc1cc(-c2cccc(-c3cccc(NC(=O)c4cccn(C)c4=O)c3C)c2C)cc(F)c1CN(C)CCO` [Example 1.164]: the IC50 under setting [1] is < 10 nM.

Turning to `COc1cc(-c2cccc(-c3cccc(NC(=O)c4cncc(N)n4)c3C)c2C)cc(F)c1CN1CC(C(=O)O)C1` [Example 1.327], the IC50 under setting [2] is < 10 nM.

For `COc1cc(-c2cccc(-c3cccc(NC(=O)c4cn(C)c(=O)n(C)c4=O)c3C)c2C)cc(F)c1CN(C)[C@@H]1CNC(=O)C1` [Example 1.148], under setting [1], the IC50 was < 10 nM.

With `COc1cc(-c2cccc(-c3cccc(NC(=O)c4cn(C)c(=O)n(C)c4=O)c3C)c2C)cc(F)c1CN(C)[C@H]1CNC(=O)C1` [Example 1.126], under setting [1], the IC50 lay in the range of 10 to 1000 nM.

Take `COc1cc(-c2cccc(-c3cccc(Nc4nccc5nccnc45)c3C)c2Cl)cc(F)c1CNC[C@@H]1CCC(=O)N1` [Example 1.027]: the IC50 under setting [1] is < 10 nM.

Take `COc1cc(-c2cccc(-c3cccc(NC(=O)c4cn(C)c(=O)n(C)c4=O)c3F)c2Cl)cc(F)c1CN[C@@H]1CCOC[C@@H]1O` [Example 2.106]: the IC50 under setting [3] is < 10 nM.

As to `COc1cc(-c2cccc(-c3cccc(NC(=O)c4cn(C)c(=O)n(C)c4=O)c3C)c2Cl)cc(F)c1CN(C)CCO` [Example 2.058], under setting [3], the IC50 was < 10 nM.

As to `COc1cc(-c2cccc(-c3cccc(NC(=O)C4CCNCC4)c3C)c2C)cc(F)c1CNCCO` [Example 1.397], under setting [2], the IC50 fell in the range of 10 to 1000 nM.

Take `COc1cc(-c2cccc(-c3cccc(NC(=O)c4cn(C)c(=O)n(C)c4=O)c3C)c2Cl)cc(F)c1CN1CC(C)(C(=O)O)C1` [Example 2.017]: the IC50 under setting [3] is < 10 nM.

As to `COc1cc(-c2cccc(-c3cccc(NC(=O)c4cccn(C)c4=O)c3C)c2C)cc(F)c1CNC1COC1` [Example 1.169], the IC50 under setting [1] is 10 to 1000 nM.

Turning to `COc1cc(-c2cccc(-c3cccc(NC(=O)c4cn(C)c(=O)n(C)c4=O)c3Cl)c2Cl)cc(F)c1CN1CCC(C)(O)CC1` [Example 2.009], the IC50 under setting [3] is < 10 nM.

For the molecule `COc1cc(-c2cccc(-c3cccc(NC(=O)c4nn(C)c(=O)n(C)c4=O)c3C)c2C)cc(F)c1CN[C@@H]1CNC(=O)C1` [Example 1.105], under setting [1], the IC50 is < 10 nM.

Turning to `COc1cc(-c2cccc(-c3cccc(NC(=O)c4cn(C)c(=O)n(C)c4=O)c3C)c2Cl)cc(F)c1CN1CC(C(=O)O)C1` [Example 2.046], the IC50 under setting [3] is < 10 nM.

`COc1cc(-c2cccc(-c3cccc(Nc4cncc5nccnc45)c3C)c2C)cc(F)c1CN[C@@H]1CCOC[C@@H]1O` [Example 1.041]: the IC50 under setting [1] is < 10 nM.

Take `COc1cc(-c2cccc(-c3cccc(NC(=O)c4cccn(C)c4=O)c3C)c2C)cc(F)c1CNC(C)(C)CO` [Example 1.150]: under setting [1], the IC50 is < 10 nM.

Regarding `COc1cc(-c2cccc(-c3cccc(NC(=O)c4cn(C)c(=O)n(C)c4=O)c3C)c2Cl)cc(F)c1CNC[C@@H]1CCC(=O)N1` [Example 1.036], under setting [1], the IC50 was < 10 nM.

On to `COc1cc(-c2cccc(-c3cccc(NC(=O)c4cn(C)c(=O)n(C)c4=O)c3C)c2C)cc(F)c1CN[C@H]1CCOC[C@@H]1O` (racemic) [Example 1.013], for which the IC50 under setting [1] was < 10 nM.

With `COc1cc(-c2cccc(-c3cccc(NC(=O)c4cn(C)c(=O)n(C)c4=O)c3C)c2Cl)cc(F)c1CN[C@@H]1CNC(=O)C1` [Example 1.035], the IC50 under setting [1] was < 10 nM.

Consider `COc1cc(-c2cccc(-c3cccc(NC(=O)c4cncn(C)c4=O)c3C)c2C)cc(F)c1CNCC(C)(C)O` [Example 1.205], for which the IC50 under setting [2] is < 10 nM.

For the molecule `COc1cc(-c2cccc(-c3cccc(NC(=O)c4cn(C)c(=O)n(C)c4=O)c3C)c2Cl)cc(F)c1CN[C@H]1CCCOC1` [Example 2.080], the IC50 under setting [3] was < 10 nM.

As for `COc1cc(-c2cccc(-c3cccc(NC(=O)N4CCNCC4)c3C)c2C)cc(F)c1CN` [Example 1.392], the IC50 under setting [2] lay in the range of 10 to 1000 nM.

With `COc1cc(-c2cccc(-c3cccc(NC(=O)c4cncn(C)c4=O)c3C)c2C)cc(F)c1CNC1CCOC1` (stereo not shown) [Example 1.139], under setting [1], the IC50 is < 10 nM.

On to `COc1cc(-c2cccc(-c3cccc(Nc4nccc5cccnc45)c3C)c2C)cc(F)c1CN1CC(C(=O)O)C1` [Example 1.318], for which the IC50 under setting [2] was in the range of 10 to 1000 nM.

Values taken from patent publication US11266643B2, “Triaryl compounds for treatment of PD-L1 diseases” (CHEMOCENTRYX, INC., priority 2019, dated 2022).
